The results in this text go back to patent US20260124191A1, “HISTONE DEACETYLASE INHIBITOR AND USES THEREOF” (NANJING HONGSHUN PHARMACEUTICAL TECHNOLOGY CO., LTD, priority 2023, published 2026).

One experiment relates to HT29. As to the kind of experiment: In vitro anti-tumor activity, MTT method. The settings on record: Homo sapiens, HT-29, 96-hour treatment, read-out: Antiproliferative Activity (IC50 ± SD, μM) HT29. The class given is cell-based. For orientation: Tetrazolium dyes change colour on reduction, which living cells bring about.
For a further experiment, the system named is HDAC. Kind of experiment: HDAC inhibitory activity assay (FRET). The class given is biochemical. The settings on record: test concentration 100 nM; relative to DMSO control. On the procedure:
The HDAC inhibitory activity of the synthesized compounds was determined by fluorescence resonance energy transfer (FRET), and then compared with that of the positive control to screen out compounds with better activity. HDAC was obtained by purification or purchased directly.
The method was as follows.
An enzyme was added to reaction wells, a reaction buffer was added to control wells, a sample dissolved in DMSO was added to the reaction wells, and the wells were incubated using a contactless nanoflow sonic pipetting system (Ech-550; nanoflow). A fluorescent substrate was added to each reaction well and then rotated and shaken. The wells were incubated for 1-2 h at 30° C. under a sealed condition. A TMP26-containing chromogenic agent was added to terminate the reaction and produce fluorescence. The fluorescence intensity was detected using En Vision multi-label microplate detector (Perkin Elmer) (excitation light: 490 nm, emitted light: 520 nm). After the stabilization of color development, the endpoint value was read. The percentage (relative to the DMSO control group) inhibition rate was calculated using the software GraphPad Prism 4.

The subject of experiment [1] is human prostate cancer cells PC-3. Kind of experiment: In vitro anti-tumor activity, MTT method. It counts as cell-based. The settings on record: Homo sapiens, 96 h, PC-3, MTT, 96-hour treatment. Here is the method: (§1) The inhibitory effects of the compounds against human non-small cell lung cancer cell lines A549, NCI-H1650, human small cell lung cancer cell lines H446, human prostate cancer cells DU145, PC-3, LNCAP, human colon cancer cells lines HCT116, human breast cancer cells MDA-MB-231, and MCF7 tumor cell lines were determined using the MTT method.
(§2) The method was as follows. The cells in the exponential growth phase were collected to count living cells. The concentration of the cell suspension was adjusted using the corresponding medium of each group of cells. The cell suspension was added to the 96-well culture plate at 100 μL per cell, and the plate was placed in a 5% CO2 incubator at 37° C. and incubated for 24 h. Each test compound was dissolved in DMSO to prepare a stock solution with a corresponding concentration. Then, each stock solution was diluted 500-fold with the medium to prepare 4 replicate wells. 100 μL of the corresponding 500-fold solution was added to each well per cell line, with the final DMSO concentration of 0.1%. […] The half-maximal (relative to the DMSO control group) inhibition rate was calculated using the software GraphPad Prism 4.

Experiment [2] relates to human prostate cancer cells LNCAP. Kind of experiment: In vitro anti-tumor activity, MTT method. It counts as cell-based. The settings on record: 96-hour treatment, read-out: Antiproliferative Activity (IC50 ± SD, μM) LNCAP. On the procedure: as §1, §2
In experiment [3] the test system is human non-small cell lung cancer cell line A549. As to the kind of experiment: In vitro anti-tumor activity, MTT method. It counts as cell-based. The settings on record: Homo sapiens, A549, 96 h, 96-hour treatment. Here is the method:
as §1, §2

Experiment [4] deals with human prostate cancer cells DU145. Kind of experiment: In vitro anti-tumor activity, MTT method. The class given is cell-based. To be noted: Homo sapiens, DU-145, 96 h, 96-hour treatment. Here is the method: as §1, §2
For experiment [5], the system named is human colon cancer cell line HCT116. As to the kind of experiment: In vitro anti-tumor activity, MTT method. The class given is cell-based. To be noted: HCT-116, 96-hour treatment, read-out: Antiproliferative Activity (IC50 ± SD, μM) HCT116. On the procedure:
as §1, §2

Experiment [6] has as its system human small cell lung cancer cell line H446. As to the kind of experiment: In vitro anti-tumor activity, MTT method. It counts as cell-based. The settings on record: NCI-H446, 96-hour treatment, read-out: Antiproliferative Activity (IC50 ± SD, μM) H446. On the procedure: as §1, §2
Experiment [7] relates to human non-small cell lung cancer cell line NCI-H1650. Kind of experiment: In vitro anti-tumor activity, MTT method. It counts as cell-based. The settings on record: 96-hour treatment, read-out: Antiproliferative Activity (IC50 ± SD, μM) H1650. Here is the method: as §1, §2
Experiment [8] concerns human breast cancer cells MCF7. Kind of experiment: In vitro anti-tumor activity, MTT method. To be noted: Homo sapiens, MCF7, 96 h, MCF-7, MTT, 96-hour treatment. It counts as cell-based. On the procedure: as §1, §2
Experiment [9] has as its system human breast cancer cells MDA-MB-231. Kind of experiment: In vitro anti-tumor activity, MTT method. The settings on record: MDA-MB-231, MTT, 96-hour treatment, read-out: Antiproliferative Activity (IC50 ± SD, μM) MDA-MB-231. It counts as cell-based. Here is the method: as §1, §2

The structures appear in SMILES notation.

As a reminder, the IC50 is the concentration at which inhibition is half-maximal. For the molecule `O=C(CCCCCCN1C(=O)C/C(=C\c2ccc3ccccc3c2)C1=O)NO` [Example I-22, (E)-7-(3-(2-methylenenaphthyl)-2,5-diketopyrrolidinyl)-N-hydroxyheptamide], the half-maximal inhibitory concentration (IC50) in the experiment on HT29 was 1.69 ± 0.1 µM; in experiment [1], 1290 ± 140 nM; in [2], 1.48 ± 0.2 µM; in experiment [3] it was 1800 ± 140 nM; in experiment [4] it was 340 ± 30 nM; in experiment [5] it was 0.91 ± 0.11 µM. Moreover, the IC50 in experiment [6] turned out to be 0.7 ± 0.1 µM; in experiment [7], 4.42 ± 0.72 µM; in experiment [8], 980 ± 20 nM; in [9], 0.98 ± 0.11 µM. Further, the Inhibition rate in the experiment on HDAC is 89.4% ± 0.9%.
